# Where a name gives a salt, the structure may show the parent alone. Read-outs that look alike come from different tables or passages of the source.
# Assays:
# [1] = molecular target: T1, hypothalamic histamine H1 receptors (Rattus norvegicus, UniProt P31390); experiment: Histamine H1 ex vivo binding ([3H]-pyrilamine, rat hypothalamic homogenates); type: in vivo; conditions: rat hypothalamus; dose required to occupy 50% of histamine H1 receptors; 90 minutes after gavage
# T1 construct: from tissue; host or cells: hypothalamus of male Sprague Dawley rats
# T1 sequence (P31390 whole entry): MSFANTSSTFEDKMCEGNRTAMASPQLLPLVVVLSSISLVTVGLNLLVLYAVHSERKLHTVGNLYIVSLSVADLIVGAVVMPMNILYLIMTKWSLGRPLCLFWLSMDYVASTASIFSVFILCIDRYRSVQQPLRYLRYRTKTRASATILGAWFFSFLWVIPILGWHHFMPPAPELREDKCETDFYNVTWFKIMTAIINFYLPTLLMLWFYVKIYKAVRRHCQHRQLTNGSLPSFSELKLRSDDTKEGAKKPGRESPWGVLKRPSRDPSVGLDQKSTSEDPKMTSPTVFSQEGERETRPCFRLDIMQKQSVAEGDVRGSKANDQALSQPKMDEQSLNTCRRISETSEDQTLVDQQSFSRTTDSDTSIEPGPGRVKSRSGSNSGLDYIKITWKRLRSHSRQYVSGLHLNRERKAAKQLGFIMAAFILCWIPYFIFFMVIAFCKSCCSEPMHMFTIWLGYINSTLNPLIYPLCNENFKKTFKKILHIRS
# Method: The in vivo potency of a compound to occupy hypothalamic histamine H1 receptors in the rat was determined using a histamine H1 ex vivo binding assay.
# (§1) Male Sprague Dawley rats (Harlan Sprague Dawley, Inc., Indianapolis, Ind.) weighing 110 grams were fasted overnight. […] All other compounds were administered at 5 ml/kg in dilute lactic acid. Tissues were dissected, frozen on dry ice and stored at −70° C. prior to analysis.
# Ex vivo binding of the histamine H1 antagonist [^3H]-pyrilamine (NEN Life Science Products) to rat hypothalamic homogenates was determined. Tissues were homogenized in 600 μl incubation buffer (50 mM sodium phosphate monobasic, pH 7.4) and pre-incubated 10 minutes at 37° C. to remove endogenous histamine. Triplicate tubes, each containing 100 μl homogenate, were combined with 1 ml buffer containing 3 nM [^3H]-pyrilamine and incubated 30 minutes at 25° C. […] [^3H]-pyrilamine binding was measured after separation filtration using a Brandell cell harvester with GF/C filters which had been soaked in 0.1% polyethylenimine. ED50 values were determined using the Allfit statistical program for displacement binding.
# Dopamine D2 receptor = molecular target: T2, Dopamine D2 receptor (Homo sapiens, UniProt P14416); experiment: Dopamine D2 receptor binding assay ([125I]iodospiperone)
# T2 construct: purchased Receptor Biology (now owned by NEN) RBHD2CM
# T2 sequence (P14416 1-414 isoform P14416-2): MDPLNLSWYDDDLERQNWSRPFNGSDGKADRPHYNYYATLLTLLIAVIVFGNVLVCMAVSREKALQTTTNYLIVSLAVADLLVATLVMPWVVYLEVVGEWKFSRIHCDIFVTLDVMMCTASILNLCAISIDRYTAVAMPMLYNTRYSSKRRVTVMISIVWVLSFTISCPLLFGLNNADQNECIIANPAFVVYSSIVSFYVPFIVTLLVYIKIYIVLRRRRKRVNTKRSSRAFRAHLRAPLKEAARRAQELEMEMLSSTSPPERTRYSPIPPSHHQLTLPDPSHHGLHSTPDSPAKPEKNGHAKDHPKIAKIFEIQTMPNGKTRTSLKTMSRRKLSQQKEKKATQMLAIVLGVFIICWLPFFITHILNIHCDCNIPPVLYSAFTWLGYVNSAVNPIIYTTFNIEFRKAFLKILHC
# dopamine D2 receptors = molecular target: T3, dopamine D2 receptors (Rattus norvegicus, UniProt P61169); experiment: DOPAC concentrations in rat nucleus accumbens (in vivo D2 receptor blockade); conditions: dose that increases DOPAC to 200% of control, 90 minutes after gavage
# T3 construct: from tissue; host or cells: male Sprague Dawley rats, nucleus accumbens (in vivo)
# T3 sequence (P61169 whole entry): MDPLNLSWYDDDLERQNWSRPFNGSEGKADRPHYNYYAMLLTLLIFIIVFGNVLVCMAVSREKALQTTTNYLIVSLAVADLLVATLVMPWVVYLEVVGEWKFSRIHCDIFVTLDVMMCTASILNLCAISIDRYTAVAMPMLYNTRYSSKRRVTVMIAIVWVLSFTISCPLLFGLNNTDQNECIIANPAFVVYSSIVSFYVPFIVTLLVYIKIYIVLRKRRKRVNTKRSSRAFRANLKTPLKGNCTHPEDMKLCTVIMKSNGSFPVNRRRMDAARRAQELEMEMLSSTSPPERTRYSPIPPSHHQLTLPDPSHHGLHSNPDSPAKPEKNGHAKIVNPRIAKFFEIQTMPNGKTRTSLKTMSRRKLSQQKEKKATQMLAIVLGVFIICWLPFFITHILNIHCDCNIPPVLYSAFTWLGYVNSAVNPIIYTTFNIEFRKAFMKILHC
# Method: Antipsychotics are believed to exert at least part of their therapeutic effects through blockade of the dopamine D2 receptor. The ability of a compound to block dopamine D2 receptors in the rat in vivo was determined by measuring the effect of the compound on the level of DOPAC (3,4-dihydroxyphenylacetic acid), a metabolite of dopamine, in nucleus accumbeus of the rat. Dopamine D2 receptor antagonists increase the release of dopamine into the synapse due to blockade of the dopamine D2 autoreceptor. This increased release of dopamine cannot be directly measured, since the efficiency of the dopamine reuptake system prevents increases in synaptic dopamine concentrations. Instead, increases in the levels of the dopamine metabolites DOPAC (3,4-dihydroxyphenylacetic acid) and HVA (homovanillic acid) reflect increased neuronal dopaminergic activity in vivo.
# as §1
# Rat nucleus accumbens DOPAC (3,4-dihydroxyphenylacetic acid) concentrations were measured using high-pressure liquid chromatography with electrochemical detection (HPLC-EC). Tissues were sonicated in 1 ml 0.1N TCA. After centrifugation, a 25 µl aliquot of supernatant was injected onto a BDS Hypersyl C18 column (150×4.6 mm, Keystone Scientific). The elution buffer contained 75 mM sodium phosphate monobasic, 0.5 mM EDTA, 350 mg/L 1-octanesulfonate sodium, 7% acetonitrile (v/v) and 0.7% tetrahydrofuran (v/v), pH 3.0. The flow rate was 1.2 ml/min at 40° C. Peak heights were measured at 750 mV at 10 nA sensitivity and compared with samples containing known amounts of DOPAC standards.
# [2] = molecular target: T4, human Histamine-1 receptors (Homo sapiens, UniProt P35367); experiment: 3H-Pyrilamine SPA binding to human Histamine-1 receptors; conditions: read-out: Receptor affinity (Ki, nM) H1
# T4 construct: expressed in transfected cells
# T4 sequence (P35367 whole entry): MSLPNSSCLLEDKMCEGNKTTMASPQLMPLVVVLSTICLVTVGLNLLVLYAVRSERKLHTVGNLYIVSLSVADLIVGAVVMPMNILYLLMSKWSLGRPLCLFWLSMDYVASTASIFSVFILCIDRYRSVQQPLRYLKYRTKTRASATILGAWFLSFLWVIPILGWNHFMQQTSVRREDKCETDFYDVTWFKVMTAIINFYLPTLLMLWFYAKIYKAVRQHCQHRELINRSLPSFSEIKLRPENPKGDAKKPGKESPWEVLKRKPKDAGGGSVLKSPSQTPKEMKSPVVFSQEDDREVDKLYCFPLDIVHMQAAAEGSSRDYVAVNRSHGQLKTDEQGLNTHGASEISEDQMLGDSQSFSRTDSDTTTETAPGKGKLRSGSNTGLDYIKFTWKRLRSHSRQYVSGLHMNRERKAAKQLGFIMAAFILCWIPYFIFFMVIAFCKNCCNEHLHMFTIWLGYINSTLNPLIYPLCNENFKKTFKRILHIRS
# Method: Their ability of a compound to block histamine H1 receptors can be estimated in vitro by measuring the in vitro histamine H1 receptor affinity. […] The ratio of in vitro histamine H1 receptor affinity divided by the in vitro dopamine D2 receptor affinity, both expressed as Ki's, is an estimate of a compound's likelihood to cause weight gain at therapeutic levels. […] Incubations were performed in a total volume of 200 μl in 96 well assay plates. 50 μl ^3H-pyrilamine (NEN, 20 Ci/mmol, final concentration=3.0 nM) was added to 50 μl of test compounds dissolved in water (±DMSO and/or glacial acetic acid). 50 μl Wheat Germ Agglutinin (WGA) bead, at 1 mg/well, (Amersham Life Sciences) in assay buffer (67 mM TrisCl pH 7.4) were then added. Membrane homogenate from cells expressing human Histamine-1 receptors, approximately 700,000 cells/well, was added last. The plates were covered with sealing tape (FasCal) and allowed to incubate at room temperature for 2 hours. The plates were then centrifuged at approximately 200×g for 10 minutes at room temperature. The amount of ^3H-pyrilamine bound to the membranes, ie proximate to the WGA bead, was then determined using a Wallac MicroBeta Trilux Scintillation Counter (Wallac, Inc.).
# [3] = read-out: Receptor affinity (Ki, nM) D2
In vivo activity H1: H1 ex vivo binding (ED50) [1],Ki (Dopamine D2 receptor; [3]) [nM],In vivo activity D2: DOPAC elevation (ED200) (dopamine D2 receptors),Ki [2] [nM],"Ki (Dopamine D2 receptor; relative Ki scale of Table 5, read-out: Relative D2 Receptor Binding Affinity Ki) [nM]",Compound
">30 mg/kg, po",6,"6 mg/kg, po",24,,"COCC[C@H]1CN(C2=Nc3ccc(F)cc3Nc3sc(C)cc32)CCN1C [Example 279, (S)-6-Fluoro-10-[3-(2-methoxy-ethyl)-4-methyl-piperazin-1-yl]-2-methyl-4H-3-thia-4,9-diaza-benzo[f]azulene hydrochloride]"
">30 mg/kg, po",11,"6.4 mg/kg, po",80,,"COCC[C@H]1CN(C2=Nc3cc(F)c(F)cc3Nc3sc(C)cc32)CCN1C.Cl.Cl [Example 288, (S)-6,7-Difluoro-10-[3-(2-methoxy-ethyl)-4-methyl-piperazin-1-yl]-2-methyl-4H-3-thia-4,9-diaza-benzo[f]azulene hydrochloride]"
">30 mg/kg, po",13,"7.5 mg/kg, po",48,,"COCC[C@H]1CN(C2=Nc3cc(Cl)ccc3Nc3sc(C)cc32)CCN1C [Example 292, (S)-7-Chloro-10-[3-(2-methoxy-ethyl)-4-methyl-piperazin-1-yl]-2-methyl-4H-3-thia-4,9-diaza-benzo[f]azulene dihydrochloride]"
">30 mg/kg, po",9,"4 mg/kg, po",91,< 10,"COCC[C@H]1CN(C2=Nc3ccccc3Nc3sc(C(C)C)nc32)CCN1C.Cl.Cl [Example 327, (S)-10-[3-(2-Methoxyethyl)-4-methylpiperazin-1-yl]-2-isopropyl-4H-3-thia-1,4,9-triazabenzo[f]azulene dihydrochloride]"
